Laboratory results from patent US4024277A, “Phosphoro-aminosulfenyl derivatives of benzofuran carbamates” (priority 1975, dated 1977).

Columns and labels:
large milkweed bug [1] = test: Initial insecticidal activity, milkweed bug; assay type: in vivo, Oncopeltus fasciatus (Dallas); conditions: Oncopeltus fasciatus, 48-hour exposure, read-out: % Kill, Milkweed Bug
Excerpt: (§1) a. Initial Insecticidal Activity
(§2) In this test, a candidate insecticide, in solution, is applied to either infested or uninfested plants or containers by spraying or dipping. (The preferred test procedure varies with insect species. The dipping method is better than the spraying method, and vice versa, for certain species of insects. Also some species are better adapted to the test by infesting after the chemical treatment rather than before.) Once the tests have been established, a 48-hour exposure period is observed before reading the tests. Insect species included in these tests are Mexican bean beetle (Epilachna varivestis Mulsant), pea aphid [Acyrthosiphon pisum (Harris)], southern armyworm [Spodoptera eridania (Cramer)], twospotted spider mite (Tetranychus urticae Koch), large milkweed bug [Oncopeltus fasciatus (Dallas)], plum curculio [Conotrachelus nenuphar (Herbst)], confused flour beetle (Tribolium confusum Jacquelin duVal) and granary weevil [Sitophilus granarius (Linnaeus)]. Test results are set forth in Table I. A control sample, comprising the solution without the candidate insecticide, is also included.

plum curculio [2] = test: Initial insecticidal activity, plum curculio; assay type: in vivo, Conotrachelus nenuphar (Herbst); conditions: Conotrachelus nenuphar, 48-hour exposure, read-out: % Kill, Plum Curculio
Excerpt: as §1, §2

confused flour beetle [3] = test: Initial insecticidal activity, confused flour beetle; assay type: in vivo, Tribolium confusum Jacquelin duVal; conditions: Tribolium confusum, 48-hour exposure, read-out: % Kill, Confused Flour Beetle
Excerpt: as §1, §2

Mexican bean beetle [4] = test: Initial insecticidal activity, Mexican bean beetle; assay type: in vivo, Epilachna varivestis Mulsant; conditions: Epilachna varivestis, 48-hour exposure, read-out: % Kill, Mexican Bean Beetle
Excerpt: as §1, §2

pea aphid [5] = test: Initial insecticidal activity, pea aphid; assay type: in vivo, Acyrthosiphon pisum (Harris); conditions: Acyrthosiphon pisum, 48-hour exposure, read-out: % Kill, Pea Aphid
Excerpt: as §1, §2

southern armyworm [6] = test: Initial insecticidal activity, southern armyworm; assay type: in vivo, Spodoptera eridania (Cramer); conditions: Spodoptera eridania, 48-hour exposure, read-out: % Kill, Southern Armyworm
Excerpt: as §1, §2

twospotted spider mite [7] = test: Initial insecticidal activity, twospotted spider mite; assay type: in vivo, Tetranychus urticae Koch; conditions: Tetranychus urticae, 48-hour exposure, read-out: % Kill, Twospotted Spider Mite
Excerpt: as §1, §2

large milkweed bug [8] = test: Seven-day residual insecticidal activity, milkweed bug; assay type: in vivo, Oncopeltus fasciatus (Dallas); conditions: Oncopeltus fasciatus, 48-hour exposure, read-out: % Kill, Milkweed Bug
Excerpt: (§3) b. Seven-Day Residual Insecticidal Activity
(§4) In this test, a candidate insecticide, in solution, is applied to uninfested plants or containers by dipping or spraying. A seven-day holding period is necessary before infestation. A 48-hour exposure period is observed before evaluation of the tests. The insect species used in this type of test are the same as those listed under initial activity.

plum curculio [9] = test: Seven-day residual insecticidal activity, plum curculio; assay type: in vivo, Conotrachelus nenuphar (Herbst); conditions: Conotrachelus nenuphar, 48-hour exposure, read-out: % Kill, Plum Curculio
Excerpt: as §3, §4

confused flour beetle [10] = test: Seven-day residual insecticidal activity, confused flour beetle; assay type: in vivo, Tribolium confusum Jacquelin duVal; conditions: Tribolium confusum, 48-hour exposure, read-out: % Kill, Confused Flour Beetle
Excerpt: as §3, §4

Mexican bean beetle [11] = test: Seven-day residual insecticidal activity, Mexican bean beetle; assay type: in vivo, Epilachna varivestis Mulsant; conditions: Epilachna varivestis, 48-hour exposure, read-out: % Kill, Mexican Bean Beetle
Excerpt: as §3, §4

pea aphid [12] = test: Seven-day residual insecticidal activity, pea aphid; assay type: in vivo, Acyrthosiphon pisum (Harris); conditions: Acyrthosiphon pisum, 48-hour exposure, read-out: % Kill, Pea Aphid
Excerpt: as §3, §4

southern armyworm [13] = test: Seven-day residual insecticidal activity, southern armyworm; assay type: in vivo, Spodoptera eridania (Cramer); conditions: Spodoptera eridania, 48-hour exposure, read-out: % Kill, Southern Armyworm
Excerpt: as §3, §4

twospotted spider mite [14] = test: Seven-day residual insecticidal activity, twospotted spider mite; assay type: in vivo, Tetranychus urticae Koch; conditions: Tetranychus urticae, 48-hour exposure, read-out: % Kill, Twospotted Spider Mite
Excerpt: as §3, §4

Mexican bean beetle [15] = test: Systemic insecticidal activity (soil/water), Mexican bean beetle; assay type: in vivo, Epilachna varivestis Mulsant; conditions: Epilachna varivestis, 48-hour exposure, read-out: % Kill, Mexican Bean Beetle
Protocol: (§5) c. Systemic Insecticidal Acitivity (Soil/Water)
(§6) In this test, a candidate insecticide, in solution, is added to the soil of either uninfested pinto bean seedlings (Phaseolus vulgaris) or uninfested broad bean seedlings (Vicia faba var. Windsor). The plant species used depend on the insect species in the test. Usually, a 72-hour translocation period before infestation is required, followed by a 48-hour exposure period, before evaluation of the tests. The insect species used in the systemic tests are Mexican bean beetle, southern armyworm, pea aphid, and twospotted spider mite.

pea aphid [16] = test: Systemic insecticidal activity (soil/water), pea aphid; assay type: in vivo, Acyrthosiphon pisum (Harris); conditions: Acyrthosiphon pisum, 48-hour exposure, read-out: % Kill, Pea Aphid
Protocol: as §5, §6

southern armyworm [17] = test: Systemic insecticidal activity (soil/water), southern armyworm; assay type: in vivo, Spodoptera eridania (Cramer); conditions: Spodoptera eridania, 48-hour exposure, read-out: % Kill, Southern Armyworm
Protocol: as §5, §6

twospotted spider mite [18] = test: Systemic insecticidal activity (soil/water), twospotted spider mite; assay type: in vivo, Tetranychus urticae Koch; conditions: Tetranychus urticae, 48-hour exposure, read-out: % Kill, Twospotted Spider Mite
Protocol: as §5, §6

twospotted spider mite [19] = test: Ovicidal activity against the twospotted spider mite; assay type: in vivo, Tetranychus urticae Koch; conditions: Tetranychus urticae, eggs, 7 to 10 days, read-out: % Kill (ovicidal)
Protocol: d. Ovicidal Activity Against the Twospotted Spider Mite
In this test, Pinto bean seedlings are infested with female twospotted spider mites; about 3-4 hours are allowed for egg deposition. Plants are then dipped in TEPP (tetraethylpyrophosphate-commercial emulsifiable concentrate (EC)) solution containing 936 ppm of active ingredient. TEPP kills motile forms on the leaf and promptly degrades without effecting the egg stage. Two to three hours after TEPP treatment the plants are again dipped -- this time into a candidate insecticide solution. The test plants are maintained for 7 to 10 days. Termination of exposure is determined by the time required to attain complete hatch in the untreated check.

SMILES: CCCN(SN(C)C(=O)Oc1cccc2c1OC(C)(C)C2)P(=O)(OCC)OCC [4(c), 2,3-dihydro-2,2-dimethyl-7-benzofuranyl [(N-diethoxyphosphinyl) (N-n-propyl)aminosulfenyl][methyl]carbamate]
- mortality at 39 ppm (large milkweed bug [1]): 90%
- mortality at 156 ppm (large milkweed bug [1]): 100%
- mortality at 1250 ppm (large milkweed bug [1]): 100%
- mortality at 39 ppm (plum curculio [2]): 0%
- mortality at 156 ppm (plum curculio [2]): 50%
- mortality at 1250 ppm (plum curculio [2]): 10%
- mortality at 39 ppm (confused flour beetle [3]): 0%
- mortality at 156 ppm (confused flour beetle [3]): 8%
- mortality at 1250 ppm (confused flour beetle [3]): 65%
- mortality at 39 ppm (Mexican bean beetle [4]): 86%
- mortality at 156 ppm (Mexican bean beetle [4]): 100%
- mortality at 1250 ppm (Mexican bean beetle [4]): 95%
- mortality at 39 ppm (pea aphid [5]): 33%
- mortality at 156 ppm (pea aphid [5]): 100%
- mortality at 1250 ppm (pea aphid [5]): 100%
- mortality at 39 ppm (southern armyworm [6]): 0%
- mortality at 156 ppm (southern armyworm [6]): 29%
- mortality at 1250 ppm (southern armyworm [6]): 100%
- mortality at 39 ppm (twospotted spider mite [7]): 8%
- mortality at 156 ppm (twospotted spider mite [7]): 37%
- mortality at 1250 ppm (twospotted spider mite [7]): 100%
- mortality at 39 ppm (large milkweed bug [8]): 75%
- mortality at 156 ppm (large milkweed bug [8]): 95%
- mortality at 1250 ppm (large milkweed bug [8]): 100%
- mortality at 39 ppm (plum curculio [9]): 0%
- mortality at 156 ppm (plum curculio [9]): 0%
- mortality at 1250 ppm (plum curculio [9]): 19%
- mortality at 39 ppm (confused flour beetle [10]): 0%
- mortality at 156 ppm (confused flour beetle [10]): 0%
- mortality at 1250 ppm (confused flour beetle [10]): 0%
- mortality at 39 ppm (Mexican bean beetle [11]): 27%
- mortality at 156 ppm (Mexican bean beetle [11]): 62%
- mortality at 1250 ppm (Mexican bean beetle [11]): 100%
- mortality at 39 ppm (pea aphid [12]): 0%
- mortality at 156 ppm (pea aphid [12]): 0%
- mortality at 1250 ppm (pea aphid [12]): 100%
- mortality at 39 ppm (southern armyworm [13]; 39 ppm): 0%
- mortality at 156 ppm (southern armyworm [13]): 5%
- mortality at 1250 ppm (southern armyworm [13]): 60%
- mortality at 39 ppm (twospotted spider mite [14]; 39 ppm): 0%
- mortality at 156 ppm (twospotted spider mite [14]): 0%
- mortality at 1250 ppm (twospotted spider mite [14]): 2%
- mortality at 10 ppm (Mexican bean beetle [15]): 7%
- mortality at 39 ppm (Mexican bean beetle [15]): 65%
- mortality at 156 ppm (Mexican bean beetle [15]): 94%
- mortality at 10 ppm (pea aphid [16]): 0%
- mortality at 39 ppm (pea aphid [16]): 93%
- mortality at 156 ppm (pea aphid [16]): 100%
- mortality at 10 ppm (southern armyworm [17]; 10 ppm): 0%
- mortality at 39 ppm (southern armyworm [17]): 0%
- mortality at 156 ppm (southern armyworm [17]): 42%
- mortality at 10 ppm (twospotted spider mite [18]; 10 ppm): 0%
- mortality at 39 ppm (twospotted spider mite [18]): 0%
- mortality at 156 ppm (twospotted spider mite [18]): 7%
- mortality at 156 ppm (twospotted spider mite [19]): 0%
- mortality at 1250 ppm (twospotted spider mite [19]): 66%

SMILES: CCOP(=O)(OCC)N(CCc1ccccc1)SN(C)C(=O)Oc1cccc2c1OC(C)(C)C2 [9(c), 2,3-Dihydro-2,2-dimethyl-7-benzofuranyl [(N-diethoxyphosphinyl)(N-2-phenylethyl)aminosulfenyl][methyl-carbamate]]
- mortality at 39 ppm (large milkweed bug [1]): 6%
- mortality at 156 ppm (large milkweed bug [1]): 100%
- mortality at 1250 ppm (large milkweed bug [1]): 100%
- mortality at 39 ppm (plum curculio [2]): 0%
- mortality at 156 ppm (plum curculio [2]): 5%
- mortality at 1250 ppm (plum curculio [2]): 94%
- mortality at 39 ppm (confused flour beetle [3]): 0%
- mortality at 156 ppm (confused flour beetle [3]): 3%
- mortality at 1250 ppm (confused flour beetle [3]): 8%
- mortality at 39 ppm (Mexican bean beetle [4]): 60%
- mortality at 156 ppm (Mexican bean beetle [4]): 100%
- mortality at 1250 ppm (Mexican bean beetle [4]): 100%
- mortality at 39 ppm (pea aphid [5]): 0%
- mortality at 156 ppm (pea aphid [5]): 0%
- mortality at 1250 ppm (pea aphid [5]): 100%
- mortality at 39 ppm (southern armyworm [6]): 0%
- mortality at 156 ppm (southern armyworm [6]): 8%
- mortality at 1250 ppm (southern armyworm [6]): 79%
- mortality at 39 ppm (twospotted spider mite [7]): 3%
- mortality at 156 ppm (twospotted spider mite [7]): 6%
- mortality at 1250 ppm (twospotted spider mite [7]): 98%
- mortality at 39 ppm (large milkweed bug [8]): 0%
- mortality at 156 ppm (large milkweed bug [8]): 85%
- mortality at 1250 ppm (large milkweed bug [8]): 100%
- mortality at 39 ppm (plum curculio [9]): 0%
- mortality at 156 ppm (plum curculio [9]): 0%
- mortality at 1250 ppm (plum curculio [9]): 0%
- mortality at 39 ppm (confused flour beetle [10]): 0%
- mortality at 156 ppm (confused flour beetle [10]): 0%
- mortality at 1250 ppm (confused flour beetle [10]): 12%
- mortality at 39 ppm (Mexican bean beetle [11]): 8%
- mortality at 156 ppm (Mexican bean beetle [11]): 100%
- mortality at 1250 ppm (Mexican bean beetle [11]): 100%
- mortality at 39 ppm (pea aphid [12]): 6%
- mortality at 156 ppm (pea aphid [12]): 0%
- mortality at 1250 ppm (pea aphid [12]): 0%
- mortality at 156 ppm (southern armyworm [13]): 0%
- mortality at 1250 ppm (southern armyworm [13]): 25%
- mortality at 156 ppm (twospotted spider mite [14]): 0%
- mortality at 1250 ppm (twospotted spider mite [14]): 0%
- mortality at 5 ppm (Mexican bean beetle [15]; 5 ppm): 0%
- mortality at 10 ppm (Mexican bean beetle [15]): 0%
- mortality at 39 ppm (Mexican bean beetle [15]): 0%
- mortality at 156 ppm (Mexican bean beetle [15]): 65%
- mortality at 5 ppm (pea aphid [16]; 5 ppm): 0%
- mortality at 10 ppm (pea aphid [16]): 0%
- mortality at 39 ppm (pea aphid [16]): 0%
- mortality at 156 ppm (pea aphid [16]): 100%
- mortality at 39 ppm (southern armyworm [17]): 0%
- mortality at 156 ppm (southern armyworm [17]): 21%
- mortality at 312 ppm (southern armyworm [17]; 312 ppm): 80%
- mortality at 39 ppm (twospotted spider mite [18]): 0%
- mortality at 156 ppm (twospotted spider mite [18]): 0%
- mortality at 312 ppm (twospotted spider mite [18]; 312 ppm): 2%
- mortality at 156 ppm (twospotted spider mite [19]): 0%
- mortality at 1250 ppm (twospotted spider mite [19]): 94%
